# Measurements from US11230535B2, “CFTR regulators and methods of use thereof” (THE REGENTS OF THE UNIVERSITY OF CALIFORNIA, priority 2015, dated 2022).
# Like-named read-outs stand apart in the source and are kept apart here.
# Molecular target: human wild-type CFTR (Homo sapiens, UniProt P13569)
# Assay: Cell-based plate reader (YFP iodide influx) assay of CFTR function
# Parameters: expressed in transfected cells; host or cells: Fischer rat thyroid (FRT) cells stably co-expressing YFP-H148Q
# Settings: for % Activation: commercial analogs, FRT cells with YFP and wildtype CFTR, 125 nM forskolin
# Procedure: The initiate rate of I^− influx was computed by determined using exponential regression. All compound plates contained negative controls (DMSO vehicle) and positive controls (20 μM forskolin).
# High-throughput screening. […] The initiate rate of I^− influx was computed by determined using exponential regression. All compound plates contained negative controls (DMSO vehicle) and positive controls ([…] forskolin).
# Platereader assays of chloride channel function. CFTR activity was assayed as described. […] I^− influx was measured in a plate reader with initial baseline read for 2 s and then for 12 s after rapid addition of an I^−-containing solution. TMEM16A activity was assayed similarly as described using FRT cells co-expressing YFP and TMEM16A. Activity of non-TMEM16A CaCC was assayed as described in HT-29 cells expressing YFP. In each assay initial rates of I^− influx were computed as a linear measure of channel function.
# [1] = N,N-diethyl-N′-aryl-1,3,5-triazine diamine analogs, read-out: EC50 for CFTR activation
# Chain of human wild-type CFTR (P13569 whole entry): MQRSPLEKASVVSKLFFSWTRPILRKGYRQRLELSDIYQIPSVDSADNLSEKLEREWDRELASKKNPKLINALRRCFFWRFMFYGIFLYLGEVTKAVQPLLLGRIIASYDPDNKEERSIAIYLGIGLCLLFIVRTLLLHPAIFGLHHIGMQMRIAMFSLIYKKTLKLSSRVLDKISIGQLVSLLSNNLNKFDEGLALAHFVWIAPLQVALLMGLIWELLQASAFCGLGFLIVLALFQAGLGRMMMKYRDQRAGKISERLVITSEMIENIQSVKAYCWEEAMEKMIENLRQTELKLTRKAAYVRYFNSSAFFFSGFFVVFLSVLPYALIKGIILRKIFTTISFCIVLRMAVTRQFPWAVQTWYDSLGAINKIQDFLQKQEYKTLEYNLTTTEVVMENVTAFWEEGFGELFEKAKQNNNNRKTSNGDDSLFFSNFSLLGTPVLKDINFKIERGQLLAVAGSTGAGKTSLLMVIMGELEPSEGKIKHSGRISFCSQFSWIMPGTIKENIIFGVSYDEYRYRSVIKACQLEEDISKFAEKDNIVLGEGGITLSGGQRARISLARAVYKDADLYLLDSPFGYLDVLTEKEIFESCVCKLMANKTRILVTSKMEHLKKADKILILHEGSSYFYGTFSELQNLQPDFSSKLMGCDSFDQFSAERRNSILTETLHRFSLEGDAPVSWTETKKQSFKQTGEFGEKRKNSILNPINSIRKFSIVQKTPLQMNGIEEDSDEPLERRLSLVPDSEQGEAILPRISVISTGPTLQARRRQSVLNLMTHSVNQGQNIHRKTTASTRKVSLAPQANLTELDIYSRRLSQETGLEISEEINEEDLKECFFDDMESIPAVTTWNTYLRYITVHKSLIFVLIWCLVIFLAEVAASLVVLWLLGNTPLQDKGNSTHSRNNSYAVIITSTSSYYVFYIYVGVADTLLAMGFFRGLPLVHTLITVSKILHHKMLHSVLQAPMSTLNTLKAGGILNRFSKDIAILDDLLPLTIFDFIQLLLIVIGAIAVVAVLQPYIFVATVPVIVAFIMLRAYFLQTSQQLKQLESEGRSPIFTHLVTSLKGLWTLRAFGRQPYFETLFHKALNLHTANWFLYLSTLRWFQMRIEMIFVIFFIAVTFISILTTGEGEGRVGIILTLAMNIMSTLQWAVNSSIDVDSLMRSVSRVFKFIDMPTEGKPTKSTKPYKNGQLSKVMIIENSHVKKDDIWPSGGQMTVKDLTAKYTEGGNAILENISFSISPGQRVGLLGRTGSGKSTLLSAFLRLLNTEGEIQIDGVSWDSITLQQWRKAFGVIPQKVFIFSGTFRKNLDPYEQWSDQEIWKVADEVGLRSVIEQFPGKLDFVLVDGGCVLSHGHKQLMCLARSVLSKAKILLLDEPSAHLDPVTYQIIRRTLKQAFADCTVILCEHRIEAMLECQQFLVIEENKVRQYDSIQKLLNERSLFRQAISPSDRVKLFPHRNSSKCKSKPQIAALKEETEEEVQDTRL
smiles,measurement,setting,value
"CCN(CC)c1nc(Nc2cccc(C(=O)O)c2)nc(OC(C(F)(F)F)C(F)(F)F)n1 [6a, 3-({4-(diethylamino)-6-[(1,1,1,3,3,3-hexafluoropropan-2-yl)oxy]-1,3,5-triazin-2-yl}amino)benzoic acid]",EC50,[1],160 nM
"CCN(CC)c1nc(Nc2cccc(F)c2)nc(OC(C(F)(F)F)C(F)(F)F)n1 [6b, N,N-Diethyl-N′-(3-fluorophenyl)-6-[(1,1,1,3,3,3-hexafluoropropan-2-yl)oxy]-1,3,5-triazine-2,4-diamine]",EC50,[1],140 nM
"CCN(CC)c1nc(Nc2ccc(C(=O)O)cc2)nc(OC(C(F)(F)F)C(F)(F)F)n1 [6e, 4-({4-(Diethylamino)-6-[(1,1,1,3,3,3-hexafluoropropan-2-yl)oxy]-1,3,5-triazin-2-yl}amino)benzoic acid]",EC50,[1],900 nM
"CCN(CC)c1nc(Nc2ccc(F)cc2)nc(OC(C(F)(F)F)C(F)(F)F)n1 [6f, N,N-Diethyl-N′-(4-fluorophenyl)-6-[(1,1,1,3,3,3-hexafluoropropan-2-yl)oxy]-1,3,5-triazine-2,4-diamine]",EC50,[1],700 nM
"CCN(CC)c1nc(Nc2ccc([N+](=O)[O-])cc2)nc(OC(C(F)(F)F)C(F)(F)F)n1 [6g, N,N-Diethyl-6-[(1,1,1,3,3,3-hexafluoropropan-2-yl)oxy]-N-(4-nitrophenyl)-1,3,5-triazine-2,4-diamine]",EC50,[1],18000 nM
"CCN(CC)c1nc(Nc2ccc3cn[nH]c3c2)nc(OC(C(F)(F)F)C(F)(F)F)n1 [6i, N,N-Diethyl-6-[(1,1,1,3,3,3-hexafluoropropan-2-yl)oxy]-N-(1H-indazol-6-yl)-1,3,5-triazine-2,4-diamine]",EC50,"bicyclic aniline analogs, read-out: EC50",2800 nM
"CCN(CC)c1nc(Nc2ccccc2)nc(OCC(F)(F)C(F)F)n1 [7a, N,N-Diethyl-N′-phenyl-6-(2,2,3,3-tetrafluoropropoxy)-1,3,5-triazine-2,4-diamine]",EC50,[1],2000 nM
"CCN(CC)c1nc(Nc2cccc(C(=O)O)c2)nc(OCC(F)(F)C(F)F)n1 [7b, 3-{[4-(Diethylamino)-6-(2,2,3,3-tetrafluoropropoxy)-1,3,5-triazin-2-yl]amino}benzoic acid]",EC50,[1],500 nM
"CCN(CC)c1nc(Nc2cccc(F)c2)nc(OCC(F)(F)C(F)F)n1 [7c, N,N-Diethyl-N′-(3-fluorophenyl)-6-(2,2,3,3-tetrafluoropropoxy)-1,3,5-triazine-2,4-diamine]",EC50,[1],1600 nM
"CCN(CC)c1nc(Nc2cccc(Cl)c2)nc(OCC(F)(F)C(F)F)n1 [7d, N′-(3-Chlorophenyl)-N,N-diethyl-6-(2,2,3,3-tetrafluoropropoxy)-1,3,5-triazine-2,4-diamine]",EC50,[1],5400 nM
"CCN(CC)c1nc(Nc2cccc([N+](=O)[O-])c2)nc(OCC(F)(F)C(F)F)n1 [7e, N,N-Diethyl-N′-(3-nitrophenyl)-6-(2,2,3,3-tetrafluoropropoxy)-1,3,5-triazine-2,4-diamine]",EC50,[1],1200 nM
"CCN(CC)c1nc(Nc2ccc(F)cc2)nc(OCC(F)(F)C(F)F)n1 [7g, N,N-Diethyl-N′-(4-fluorophenyl)-6-(2,2,3,3-tetrafluoropropoxy)-1,3,5-triazine-2,4-diamine]",EC50,[1],4800 nM
CNc1nc(Nc2ccc(C(C)=O)cc2)nc(OC(C(F)(F)F)C(F)(F)F)n1 [K001],% Activation,,32%
C=CCNc1nc(Nc2ccc(F)cc2)nc(OC(C(F)(F)F)C(F)(F)F)n1 [K002],% Activation,,63%
CC(C)(C)Nc1nc(Nc2ccc(OC(F)(F)F)cc2)nc(OCC(F)(F)F)n1 [K003],% Activation,,16%
FC(F)(F)C(Oc1nc(Nc2cccc3ccccc23)nc(OC(C(F)(F)F)C(F)(F)F)n1)C(F)(F)F [K004],% Activation,,16%
O=[N+]([O-])c1ccccc1Nc1nc(OCC(F)(F)F)nc(OCC(F)(F)F)n1 [K005],% Activation,,29%
CNc1nc(Nc2ccccc2C(F)(F)F)nc(OC(C(F)(F)F)C(F)(F)F)n1 [K007],% Activation,,21%
COc1nc(Nc2ccccc2)nc(Nc2ccccc2)n1 [K008],% Activation,,32%
CCOc1nc(Nc2ccccc2)nc(NC2CCCC2)n1 [K009],% Activation,,57%
FC(F)(F)C(Oc1nc(Nc2ccccc2)nc(OC(C(F)(F)F)C(F)(F)F)n1)C(F)(F)F [K010],% Activation,,21%
Cc1ccc(Nc2nc(OC(C(F)(F)F)C(F)(F)F)nc(OC(C(F)(F)F)C(F)(F)F)n2)cc1 [K011],% Activation,,20%
Cc1ccccc1Nc1nc(OC(C(F)(F)F)C(F)(F)F)nc(OC(C(F)(F)F)C(F)(F)F)n1 [K012],% Activation,,19%
O=[N+]([O-])c1ccccc1Nc1nc(OC(C(F)(F)F)C(F)(F)F)nc(OC(C(F)(F)F)C(F)(F)F)n1 [K013],% Activation,,15%
O=[N+]([O-])c1cccc(Nc2nc(OC(C(F)(F)F)C(F)(F)F)nc(OC(C(F)(F)F)C(F)(F)F)n2)c1 [K014],% Activation,,18%
O=[N+]([O-])c1ccc(Nc2nc(OC(C(F)(F)F)C(F)(F)F)nc(OC(C(F)(F)F)C(F)(F)F)n2)cc1 [K015],% Activation,,6%
CC(=O)c1ccc(Nc2nc(OC(C(F)(F)F)C(F)(F)F)nc(OC(C(F)(F)F)C(F)(F)F)n2)cc1 [K016],% Activation,,19%
FC(F)(F)C(Oc1nc(Nc2cccnc2)nc(OC(C(F)(F)F)C(F)(F)F)n1)C(F)(F)F [K017],% Activation,,16%
FC(F)(F)COc1nc(Nc2ccccc2)nc(OCC(F)(F)F)n1 [K018],% Activation,,60%
Cc1ccccc1Nc1nc(OCC(F)(F)F)nc(OCC(F)(F)F)n1 [K019],% Activation,,28%
CNc1nc(OCC(F)(F)F)nc(N(c2ccccc2)c2ccccc2)n1 [K020],% Activation,,37%
COc1nc(NCCN2CCOCC2)nc(Nc2ccccc2)n1 [K021],% Activation,,16%
COc1nc(Nc2ccc(Cl)cc2)nc(NC(C)(C)C)n1 [K022],% Activation,,53%
COc1nc(Nc2ccc([N+](=O)[O-])cc2)nc(OC)n1 [K023],% Activation,,41%
CNc1nc(Nc2ccc(OC(F)(F)Cl)cc2)nc(OCC(F)(F)F)n1 [K024],% Activation,,64%
FC(F)(F)COc1nc(Nc2ccc(OC(F)(F)Cl)cc2)nc(OCC(F)(F)F)n1 [K026],% Activation,,16%
CC(C)Nc1nc(Nc2ccc([N+](=O)[O-])cc2)nc(OC(C(F)(F)F)C(F)(F)F)n1 [K027],% Activation,,20%
COc1nc(Nc2ccc(OC)c(Cl)c2)nc(OC)n1 [K028],% Activation,,23%
CC(C)(C)Nc1nc(Nc2ccc(OC(F)(F)Cl)cc2)nc(OCC(F)(F)F)n1 [K029],% Activation,,9%
CCCCNc1nc(Nc2ccc(OC(F)(F)F)cc2)nc(OCC(F)(F)F)n1 [K030],% Activation,,16%
COc1nc(Nc2ccc(O)cc2)nc(OC(C(F)(F)F)C(F)(F)F)n1 [K031],% Activation,,61%
COc1nc(NCCO)nc(Nc2ccc(Cl)cc2)n1 [K033],% Activation,,22%
C=CCNc1nc(Nc2ccc(Cl)cc2)nc(OC)n1 [K034],% Activation,,73%
COc1nc(Nc2ccc(Cl)cc2)nc(NC2CCCCC2)n1 [K035],% Activation,,55%
CCCCCCNc1nc(Nc2ccc(Cl)cc2)nc(OCC)n1 [K036],% Activation,,46%
CCOc1nc(Nc2ccc(Cl)cc2)nc(NC2CCCCC2)n1 [K038],% Activation,,53%
CCCCCCNc1nc(Nc2ccc(I)cc2)nc(OC)n1 [K039],% Activation,,27%
COc1nc(NCCO)nc(Nc2ccc(I)cc2)n1 [K040],% Activation,,17%
C=CCNc1nc(Nc2ccc(I)cc2)nc(OC)n1 [K041],% Activation,,35%
COc1nc(Nc2ccc(I)cc2)nc(OC2CCCCC2)n1 [K042],% Activation,,15%
CCOc1nc(NCCO)nc(Nc2ccc(I)cc2)n1 [K043],% Activation,,19%
